{"source": "PubChem BioAssay AID743417", "about": "(Broad Institute, 2014)", "note": "Several values for one entry are separate records, joined by “and”; a condition that tells them apart may be missing. Equal values may be shown once. Inconclusive results are not listed.", "data": [{"test_system": "Clone20 osteoblast Shn3 3'UTR firefly luciferase, 24 h", "experiment": "Schnurri-3 3'UTR-luciferase signal suppressors – cell-based, Clone20 osteoblasts, luminescence, dry powder, set 2, dose response (AID 743417)", "values": [{"smiles": "CCN(CC)S(=O)(=O)c1cccc(NC(=O)CNc2cccc(S(=O)(=O)N3CCCC3)c2)c1", "AC50": "0.317 µM"}, {"smiles": "COc1cc(C(=O)NC2CCCc3c2cnn3-c2ccccc2F)cc(OC)c1OC", "note": "(stereo unspecified)", "AC50": "0.781 µM"}, {"smiles": "Cc1ccc(C(=O)OCn2ncc(Cl)c(Cl)c2=O)cc1", "AC50": "5.07 µM"}, {"smiles": "CCCc1nc([N+](=O)[O-])c(S(=O)(=O)c2ccccc2)n1CC(C)C", "AC50": "7.39 µM"}, {"smiles": "CN(C(=O)OC(C)(C)C)c1ccc(-c2nc3ccccc3s2)cc1", "AC50": "< 0.26 µM"}, {"smiles": "CCCc1ccc(C(=O)NNc2cc(Cl)ccc2Cl)cc1", "AC50": "2.59 µM"}, {"smiles": "O=S(=O)(Nc1cccc2ncccc12)c1cccs1", "AC50": "4.3 µM"}, {"smiles": "Cc1ccc(C(C)C)cc1NC(=O)Nc1ccc([N+](=O)[O-])cc1", "AC50": "7.19 µM"}, {"smiles": "COc1ccc(CCN2CCC(Nc3nc4ccccc4n3Cc3ccc(F)cc3)CC2)cc1", "AC50": "3.03 µM"}, {"smiles": "O=C(c1nnsc1S(=O)(=O)c1ccc(Cl)cc1)N1CCOCC1", "AC50": "7.74 µM"}, {"smiles": "O=C(NCc1ccc2c(c1)OCO2)c1nc(S(=O)(=O)Cc2ccccc2F)ncc1Cl", "AC50": "5.19 µM"}, {"smiles": "COc1ccccc1-c1cc(C(F)(F)F)nc(S(=O)(=O)CCCC(=O)NCc2ccc(F)cc2)n1", "AC50": "4.43 µM"}, {"smiles": "COc1ccc(CNc2ncnc3ccccc23)cc1", "AC50": "0.674 µM"}, {"smiles": "Oc1cc(-c2cccnc2)cc2cccnc12", "AC50": "9.27 µM"}, {"smiles": "CCOc1ccc(Cn2nnc(C(=O)Nc3cc(OC)cc(OC)c3)c2N)cc1", "AC50": "5.3 µM"}, {"smiles": "Cc1cccnc1CN1CCN(C(=O)c2cc(COc3ccc4ncccc4c3)on2)CC1", "AC50": "2.1 µM"}, {"smiles": "CC(C)C(=O)N1CCN(c2ccc(NC(=O)c3ccc([N+](=O)[O-])o3)cc2Cl)CC1", "AC50": "0.954 µM"}, {"smiles": "COc1ccc(-c2nc(NC(=O)C3CC(=O)N(c4ccc5c(c4)OCCO5)C3)sc2C)cc1", "note": "(stereo unspecified)", "AC50": "5.24 µM"}, {"smiles": "CCOC(=O)c1c(NC(=O)COc2cccc3c2CCN(C)C3=O)sc2c1CCC2", "AC50": "5.44 µM"}, {"smiles": "O=c1oc2ccccc2c(Cl)c1CN1CCCCC1", "AC50": "4.99 µM"}, {"smiles": "Cc1ccccc1C(=O)N1CCN(c2ccc(NC(=O)CSc3ccc(Cl)cc3)cc2)CC1", "AC50": "4.23 µM"}, {"smiles": "O=C(CCN1CCc2ccccc2C(O)(c2ccccc2)C1)c1ccc2c(c1)OCCO2", "note": "(stereo unspecified)", "AC50": "23.1 µM"}, {"smiles": "O=C(COC(=O)c1n[nH]c2ccccc12)Nc1ccc(S(=O)(=O)N2CCCC2)cc1", "AC50": "5.33 µM"}, {"smiles": "CCOC(=O)c1cnc(-n2nc(C)cc2C)nc1NC1CCCCC1", "AC50": "3.01 µM"}, {"smiles": "CN(c1ccccc1)c1ccc(/C=C/[N+](=O)[O-])cc1", "AC50": "5.79 µM"}, {"smiles": "CCCCNc1c(-c2cccc(-c3ccc(OC)cc3)c2)nc2cc(C)ccn12", "AC50": "12 µM"}, {"smiles": "CCN(CC)c1ccc2c(c1)oc(=O)c1c(Cl)cc(=O)oc12", "AC50": "2.22 µM"}, {"smiles": "COc1ccc(C)cc1NS(=O)(=O)c1ccc(-c2cnc(C3CC3)o2)cc1", "AC50": "3.76 µM"}, {"smiles": "C[C@H]1CCC/C=C/[C@@H]2C[C@H](O)C[C@H]2[C@H](O)/C=C/C(=O)O1", "AC50": "3.15 µM and 2.2 µM"}, {"smiles": "Cc1ccc(C)c(N2CCN(C(=O)CCCCCn3c(=S)[nH]c4ccc(N5CCOCC5)cc4c3=O)CC2)c1", "AC50": "1.99 µM"}, {"smiles": "Cc1nc2ccc(NS(=O)(=O)c3ccc4c(c3)OCCO4)cc2s1", "AC50": "0.635 µM"}, {"smiles": "Cc1cccc(NS(=O)(=O)c2ccc(C3CCCCC3)cc2)c1", "AC50": "5.13 µM"}, {"smiles": "CCOC(=O)c1c2c(n(-c3ccc(OC)cc3)c1C)C(=O)C(=O)c1ccccc1-2", "AC50": "3.15 µM"}, {"smiles": "COc1cc(NC(=O)Cn2ncc(Cl)c(Cl)c2=O)c(C)cc1[N+](=O)[O-]", "AC50": "3.44 µM"}, {"smiles": "COCCn1c(C)cc(C2=NNC(=NC3CC3)SC2)c1C", "AC50": "< 0.26 µM"}, {"smiles": "CCC(C)C(NC(=O)CCCNC(=O)CCC(=O)OC1O[C@H]2OC3(C)CC[C@H]4[C@H](C)CCC(C1C)C24OO3)C(=O)O", "note": "(stereo partly specified)", "AC50": "1.02 µM"}, {"smiles": "COc1ccc([C@H]2CC(=O)C=C(c3ccc(F)cc3OCc3ccccc3)C2)cc1OC", "AC50": "7.36 µM"}, {"smiles": "C=CCN(c1ccccc1)S(=O)(=O)c1cccc(C(=O)Nc2nc3ccccc3[nH]2)c1", "AC50": "10.1 µM"}, {"smiles": "COc1ccc(-c2cc3nc(C)n(N)c(=O)c3s2)cc1", "AC50": "1.13 µM"}, {"smiles": "O=C(NCc1ccccc1C(F)(F)F)c1cccc2c1C(=O)c1ccc(N3CCC(N4CCCCC4)CC3)cc1S2(=O)=O", "AC50": "21.2 µM"}, {"smiles": "CCOC(=O)c1cnc(-n2nc(C)cc2C)nc1NCc1ccc2c(c1)OCO2", "AC50": "8.74 µM"}, {"smiles": "Oc1c(CN2CCCCC2)ccc2cccnc12", "AC50": "2.11 µM"}, {"smiles": "CC(=O)OC1(C)CC(C)C(=O)C(C(O)CC2CC(=O)NC(=O)C2)C1", "note": "(stereo unspecified)", "AC50": "< 0.26 µM"}, {"smiles": "CCN1CCN(Cc2ccc(NC(=O)c3ccc(C)c(NC(=O)c4cncc(-c5cccs5)c4)c3)cc2C(F)(F)F)CC1", "AC50": "0.808 µM"}, {"smiles": "CCOc1ccc(OCC(=O)N(CCC2=CCCCC2)c2c(N)n(Cc3ccccc3)c(=O)[nH]c2=O)cc1", "AC50": "8.66 µM"}, {"smiles": "COC(=O)C1CN(C#N)N(c2ccc(Cl)cc2)C12c1ccccc1-c1ccccc12", "note": "(stereo unspecified)", "AC50": "< 0.26 µM"}, {"smiles": "COc1ccc(C2=NS(=O)(=O)N(C)C(C(=O)N3CCc4ccccc4C3)=C2)cc1OC", "AC50": "4.99 µM"}, {"smiles": "CC(C)(C)n1nnnc1C(c1ccc(C(F)(F)F)cc1)N(Cc1ccc(F)cc1)Cc1ccco1", "note": "(stereo unspecified)", "AC50": "10.1 µM"}, {"smiles": "CCCCCCCN(c1ccccc1)[C@@H]1C[C@H]2CCCC(=O)N3CC[C@@H](C1)[C@@H]23", "AC50": "11.5 µM"}, {"smiles": "CCN(c1ccccc1)S(=O)(=O)c1ccc(NC(=O)c2nc(S(C)(=O)=O)ncc2Cl)cc1", "AC50": "0.562 µM"}, {"smiles": "CC(NCc1ccc(OCc2ccc(Cl)cc2)cc1)C(O)c1ccccc1", "note": "(stereo unspecified)", "AC50": "10.9 µM"}]}]}
